One data set relates to BRD4. To be noted: read-out: BRD4 IC50; ALPHAScreen, biotin-tagged (+)-JQ1 probe.
The nature of data set [1]: Pharmacokinetic studies in mice (1:1 mixture, intraperitoneal). It is filed as in vivo, mice (C57BL/6NJ). To be noted: for AUC(0-t) / CL/F / half-life at 24 h: C57BL/6NJ, mouse, plasma, ip, 50 mg/kg 1:1 mixture, intraperitoneal. From the text: The observed improvement in male mice was not determined to be significant, but the gender differences are not unprecedented in human drug metabolism, as the clearance of CYP3A substrates occurs more rapidly by females than males.[35] Gender differences in hepatic CYP expression have been identified in mice, rats, and humans,[36] including a female-specific CYP3A family member in mice,[37] and circadian variations in mice can accentuate the sex differences in CYP3A isoform expression.[38] […] It is noteworthy that the relationship between AUC and half-life can be affected with no correlation due to influence on both by various factors such as target-mediated drug disposition, drug formulation, route of administration, metabolism, absorption, and elimination pathways.[39],[40] AUC0–t represents the cumulative effect, while t1/2 represents only the rate at which the drug is eliminated from the body. […]
time binding response was recorded using the instrument software and sensorgrams were analyzed using the QDAT software. The baseline subtraction, referencing, and double-referencing techniques were applied to obtain specific binding responses. Kinetic parameters were calculated by fitting sensograms to OneStep binding models for determining the dissociation rate constant (kd) for the highest concentration and constraining the lower concentrations to the determined value. All data was locally fitted to a simple 1:1 interaction model.
Pharmacokinetic studies in mice
Mouse studies were performed under protocols approved by the Institutional Animal Care and Use Committee of Baylor College of Medicine and guidelines established by the NIH Guide for the Care and Use of Laboratory Animals. Animals were housed under standard conditions of a 12-hour light/dark cycle in a vivarium with controlled ambient temperature (70˚ ± 2˚ and 20-70% relative humidity). Pharmacokinetic studies were performed using 8-12-week-old mice (C57BL/6NJ, female, n =4 and male n = 4)). Mice were administered 50 mg/kg of compounds (1:1 of mixtures of (+)-JQ1 and (+)-JQ1-D) via intraperitoneal injection to mice. Twenty µl of blood was collected via the tail vein at 0, 15, 30 minutes, 1, 2, 4, 8, and 24 hours post treatment. To 10 ul of plasma was added 25 ul of MeOH with internal standard. The resulting mixtures were vortexed and span at rcf 15,000 for 15 min and 5 ul of the supernatant were injected into the UHPLC-Q Exactive Orbitrap MS for analysis. The concentrations of tested compounds were calculated based on their corresponding standard curves. Pharmacokinetic parameters including half-time (t1/2), area under the plasma concentration–time curve during the period of observation (AUC0–t), clearance normalized by bioavailability (CL/F) were calculated on WinNonlin software (Certara, Princeton, NJ) by noncompartmental analysis.

The conditions of data set [2]: cited from earlier work.
A short description of another data set: in vitro. As for the experimental part:
(§1) The samples are collected at specific time-points (0, 5, 10, 20, 40, and 60 min. The reactions are terminated by adding equivalent volume of ice-cold MeOH and vortexed. The reaction mixtures are centrifuged at rcf 15,000 for 15 min. Five μL of the supernatant will be analyzed by UHPLC-Q Exactive Orbitrap MS (Thermo Fisher Scientific, San Jose, CA) equipped with 50 mm × 4.6 mm column (XDB C-18, Agilent Technologies, Santa Clara, CA). The column temperature is maintained at 40 °C. The flow rate of is at 0.3 mL/min with a 30% mobile phase (acetonitrile containing 0.1% formic acid). Q Exactive MS is operated in positive or negative mode with electrospray ionization. Ultrapure nitrogen is applied as the sheath (45 arbitrary unit), auxiliary (10 arbitrary unit), sweep (1.0 arbitrary unit) and the collision gas. The capillary gas temperature is set at 275 °C and the capillary voltage was set at 3.7 kV. MS data were acquired from 80 to 1200 Da in […]
(§2) The Surface Plasmon Resonance (SPR) experiment was conducted using a Pioneer FE SPR System (Sartorius) equipped with a SPR HisCap Sensor
(§3) Chip. The instrument was calibrated and validated prior to the experiment according to the manufacturer's instructions. The chip surface was activated with a mixture of N-hydroxysuccinimide (NHS), 50 mM, and N-ethyl-N'-(3-dimethylaminopropyl) carbodiimide (EDC), 200 mM, at a 20 µL/min flow rate for 5. minutes. Covalent attachment of his-BRDT to channel 1 was achieved by injecting 150 µL of protein at 10 mg/mL at […]. Channel 2 of the chip was used as a blank reference and unreacted functional groups of both channels were blocked using ethanolamine.
(§4) SPR running buffer consisted of 100 mM Tris-HCl, 200 mM NaCl, and 0.05% Tween-20. […]
(§5) closely mimics the buffer conditions and injected at 40µL/min using the OneStep injection system at 0.5, 5, and 50 µM concentrations. The real-

A further data set concerns the target BRDT (Homo sapiens, UniProt Q58F21). It is filed as binding. The note with it: SPR, his-BRDT; for Kd: read-out: BRDT binding Kd. As for the experimental part: as §1, §2, §3, §4, §5
A short description of data set [3]: Isotopomeric ratios from the pharmacokinetic time course in mice. It is filed as in vivo. The note with it: first time point.
From the text: Quantifying the isomer ion counts in the same sample from a single LC/MS trace eliminates many sources of error and uncertainty and makes it possible to track the relative effects of deuteration with high precision and accuracy.

With `Cc1sc2c(c1C)C(c1ccc(Cl)cc1)=N[C@@H](CC(=O)OC(C)(C)C)c1nnc(C)n1-2` [(+)-JQ1, reference compound], the IC50 in the data set on BRD4 was […]. Further, in data set [1] (female mice), the AUC(0-t) came out at […], the CL/F is […] and the half-life at 24 h was 116 min. For the same compound, in data set [1] (male mice), the AUC(0-t) was […], the CL/F was […] and the half-life at 24 h was 202 min. Moreover, the in vivo half-life result in data set [2] is given as “about an hour”. For the same compound, in “in vitro” (human, microsomes), the half-life at 0.2 μM stood at 7.9 min and the half-life at 1 h, 0.2 μM came out at […]. Besides, the half-life at 1 h, 0.2 μM in the data set “in vitro” (mouse, microsomes) worked out at […].

As for `[2H]C([2H])([2H])c1sc2c(c1C)C(c1ccc(Cl)cc1)=N[C@@H](CC(=O)OC(C)(C)C)c1nnc(C)n1-2` [(+)-JQ1-D], the IC50 with BRD4 stood at […]. In data set [1] (female mice), the AUC(0-t) was determined as […], the CL/F was 16.5 mL/min/kg, the half-life at 24 h was […] and the “improvement of total exposure (AUC0–t) compared to (+)-JQ1” value is 23%. For the same compound, in data set [1] (male mice), the area under the curve AUC(0-t) was determined as 94200 ng·h/mL, the CL/F was […], the half-life at 24 h was […] and the “improvement of total exposure (AUC0–t) compared to (+)-JQ1” value came out at […]. The half-life at 1 h, 0.2 μM in “in vitro” (human, microsomes) amounted to 22.5 min. Moreover, in “in vitro” (mouse, microsomes), the half-life at 1 h, 0.2 μM is 19.8 min.

For the compound `Cc1c(CF)sc2c1C(c1ccc(Cl)cc1)=N[C@@H](CC(=O)OC(C)(C)C)c1nnc(C)n1-2` [(+)-JQ1-F1], on BRDT, the “BRDT binding Kd” value was “lost potency” and the Kd was 722 nM. In the data set “in vitro” (human, microsomes), this compound gave a half-life at 1 h, 0.2 μM of 52 min.

With `Cc1c(C(F)F)sc2c1C(c1ccc(Cl)cc1)=N[C@@H](CC(=O)OC(C)(C)C)c1nnc(C)n1-2` [(+)-JQ1-F2], on BRDT, the “BRDT binding Kd” value is on record as “lost potency” and the Kd is 3920 nM. Besides, the “Human liver microsomal t1/2” value in “in vitro” (0.1 mg/mL microsomal protein) is reported as “substantially improved half-life”. Further, the half-life at 1 h, 0.2 μM in “in vitro” (human, microsomes) was 125 min.

As for `Cc1c(CO)sc2c1C(c1ccc(Cl)cc1)=N[C@@H](CC(=O)OC(C)(C)C)c1nnc(C)n1-2` [M1], the values for the M1/M1D ratio in data set [3] (female mice) and in data set [3] (male mice) were 2.095 ± 0.089 and 1.799 ± 0.043, respectively.

The record behind these values is article PMC10788937, “Chemical Catalysis Guides Structural Identification for the Major In Vivo Metabolite of the BET Inhibitor JQ1” (ACS Medicinal Chemistry Letters, 2024).
